Results: publication PMC11428215, “Unveiling a New Antimicrobial Peptide with Efficacy against P. aeruginosa and K. pneumoniae from Mangrove-Derived Paenibacillus thiaminolyticus NNS5-6 and Genomic Analysis” (Antibiotics, 2024)
Where two headings read alike, the source gives them in different places. No end group written: not given here.

Key:
[1] = tested on: P. aeruginosa TISTR 357; test: Compatibility with surfactants, residual antibacterial activity; assay type: physicochemical, Pseudomonas aeruginosa; conditions: AMP 16 µg/mL, agar well diffusion read-out, % of non-treated AMP, mean ± SD, n = 3
Experimental: (§1) The AMP was dissolved in sterile purified water and adjusted a final concentration to 16 µg/mL. The sensitivity of the AMP to temperatures of 37, 40, 50, 60, 80, and 100 °C, as well as autoclaving at 121 °C for 15 and 30 min was evaluated. The sensitivity of the AMP to proteolytic enzymes with different digesting characteristics was studied by incubating with a concentration of 1 mg/mL of proteinase K, trypsin, and α-chymotrypsin (Sigma-Aldrich, Warren, MI, USA). The compatibility of the AMP with surfactants was evaluated by exposing the AMP to 1% SDS or 1% Triton X-100 (AppliChem GmbH, Darmstadt, Germany). The degradation of the AMP under various pH conditions, including physiological and extended alkaline conditions, was evaluated by adjusting the pH of the solution to 1.2, 4.5, 6.8, 7.4, 8.0, 10.0, 12.0, and 14.0. After incubation, the pH of the AMP solution was neutralized to the original pH before being assessed for antibacterial activity. The antibacterial assay against P. aeruginosa TISTR 357 was conducted using the agar well diffusion assay in triplicate. The stability profiles are presented as the percentage of the residual activity compared with the non-treatment conditions (mean ± SD), and statistical significance was determined by the Student’s t-test at a p-value < 0.05.

[2] = tested on: P. aeruginosa TISTR 357; test: Stability against pH, residual antibacterial activity; assay type: physicochemical, Pseudomonas aeruginosa; conditions: neutralized before assay, AMP 16 µg/mL, agar well diffusion read-out, % of non-treated AMP, mean ± SD, n = 3
Experimental: as §1

[3] = biological target: Proteinase K (Parengyodontium album, UniProt P06873); conditions: Proteinase K 1 mg/mL, AMP 16 µg/mL, agar well diffusion read-out, % of non-treated AMP, mean ± SD, n = 3
Chain of Proteinase K (P06873 106-384): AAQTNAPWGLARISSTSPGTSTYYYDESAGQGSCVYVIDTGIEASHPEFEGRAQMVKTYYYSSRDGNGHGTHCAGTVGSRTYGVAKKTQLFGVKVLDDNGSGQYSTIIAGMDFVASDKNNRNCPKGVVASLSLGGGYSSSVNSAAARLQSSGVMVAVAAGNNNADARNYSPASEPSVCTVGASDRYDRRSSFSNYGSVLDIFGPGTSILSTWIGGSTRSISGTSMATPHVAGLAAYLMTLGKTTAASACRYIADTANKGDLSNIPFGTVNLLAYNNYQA
Experimental: as §1

[4] = biological target: α-chymotrypsin (Bos taurus, UniProt P00766); conditions: α-chymotrypsin 1 mg/mL, AMP 16 µg/mL, agar well diffusion read-out, % of non-treated AMP, mean ± SD, n = 3
Experimental: as §1

## VKGDGGPGTVYTM [NNS5-6 AMP]
[1]; with 1% SDS, 12 h
  % Residual Activity of NNS5-6 AMP against P. aeruginosa TISTR 357: 119.19 ± 1.53 %
[1]; with 1% Triton X-100, 1 h
  % Residual Activity of NNS5-6 AMP against P. aeruginosa TISTR 357: 116.17 ± 0.60 %
[1]; with 1% Triton X-100, 6 h
  % Residual Activity of NNS5-6 AMP against P. aeruginosa TISTR 357: 120.28 ± 1.53 %
[1]; with 1% Triton X-100, 12 h
  % Residual Activity of NNS5-6 AMP against P. aeruginosa TISTR 357: 120.81 ± 1.53 %
[2]; pH 1.2, 1 h
  % Residual Activity of NNS5-6 AMP against P. aeruginosa TISTR 357: 89.62 ± 1.85 %
[2]; pH 1.2, 6 h
  % Residual Activity of NNS5-6 AMP against P. aeruginosa TISTR 357: 83.83 ± 1.72 %
[2]; pH 1.2, 12 h
  % Residual Activity of NNS5-6 AMP against P. aeruginosa TISTR 357: 81.14 ± 1.71 %
[2]; pH 4.5, 1 h
  % Residual Activity of NNS5-6 AMP against P. aeruginosa TISTR 357: 97.31 ± 0.33%
[2]; pH 4.5, 6 h
  % Residual Activity of NNS5-6 AMP against P. aeruginosa TISTR 357: 95.69 ± 1.75%
[2]; pH 4.5, 12 h
  % Residual Activity of NNS5-6 AMP against P. aeruginosa TISTR 357: 95.62 ± 1.19%
[2]; pH 6.8, 1 h
  % Residual Activity of NNS5-6 AMP against P. aeruginosa TISTR 357: 97.31 ± 3.33%
[2]; pH 6.8, 6 h
  % Residual Activity of NNS5-6 AMP against P. aeruginosa TISTR 357: 96.46 ± 0.57%
[2]; pH 6.8, 12 h
  % Residual Activity of NNS5-6 AMP against P. aeruginosa TISTR 357: 96.00 ± 0.57%
[2]; pH 7.4, 1 h
  % Residual Activity of NNS5-6 AMP against P. aeruginosa TISTR 357: 98.65 ± 0.58%
[2]; pH 7.4, 6 h
  % Residual Activity of NNS5-6 AMP against P. aeruginosa TISTR 357: 98.18 ± 1.15%
[2]; pH 7.4, 12 h
  % Residual Activity of NNS5-6 AMP against P. aeruginosa TISTR 357: 98.48 ± 0.66%
[2]; pH 8.0, 1 h
  % Residual Activity of NNS5-6 AMP against P. aeruginosa TISTR 357: 99.23 ± 1.15%
[2]; pH 8.0, 6 h
  % Residual Activity of NNS5-6 AMP against P. aeruginosa TISTR 357: 97.22 ± 0.98%
[2]; pH 8.0, 12 h
  % Residual Activity of NNS5-6 AMP against P. aeruginosa TISTR 357: 98.48 ± 0.87%
[2]; pH 10.0, 1 h
  % Residual Activity of NNS5-6 AMP against P. aeruginosa TISTR 357: 98.85 ± 1.20%
[2]; pH 10.0, 6 h
  % Residual Activity of NNS5-6 AMP against P. aeruginosa TISTR 357: 97.42 ± 0.82%
[2]; pH 10.0, 12 h
  % Residual Activity of NNS5-6 AMP against P. aeruginosa TISTR 357: 98.10 ± 1.44%
[2]; pH 12.0, 1 h
  % Residual Activity of NNS5-6 AMP against P. aeruginosa TISTR 357: 94.31 ± 0.68 %
[2]; pH 12.0, 6 h
  % Residual Activity of NNS5-6 AMP against P. aeruginosa TISTR 357: 93.40 ± 0.78 %
[2]; pH 12.0, 12 h
  % Residual Activity of NNS5-6 AMP against P. aeruginosa TISTR 357: 90.10 ± 2.38 %
[2]; pH 14.0, 1 h
  % Residual Activity of NNS5-6 AMP against P. aeruginosa TISTR 357: 90.77 ± 0.88 %
[2]; pH 14.0, 6 h
  % Residual Activity of NNS5-6 AMP against P. aeruginosa TISTR 357: 84.40 ± 1.15 %
[2]; pH 14.0, 12 h
  % Residual Activity of NNS5-6 AMP against P. aeruginosa TISTR 357: 79.05 ± 1.75 %
[3]; 1 h
  % Residual Activity of NNS5-6 AMP against P. aeruginosa TISTR 357: 96.08 ± 3.41 %
[3]; 6 h
  % Residual Activity of NNS5-6 AMP against P. aeruginosa TISTR 357: 86.58 ± 1.22 %
[3]; 12 h
  % Residual Activity of NNS5-6 AMP against P. aeruginosa TISTR 357: 83.62 ± 1.34 %
[4]; 1 h
  % Residual Activity of NNS5-6 AMP against P. aeruginosa TISTR 357: 99.38 ± 0.95%
[4]; 6 h
  % Residual Activity of NNS5-6 AMP against P. aeruginosa TISTR 357: 99.42 ± 1.22%
[4]; 12 h
  % Residual Activity of NNS5-6 AMP against P. aeruginosa TISTR 357: 98.46 ± 0.88%
